This is an account of results in patent publication US20230305016A1, “TEST KIT AND METHOD OF DETERMINING TRYPTOPHAN IN EXTRACTS OF FAECAL SAMPLES” (IMMUNDIAGNOSTIK AG, priority 2020, published 2023).

For one series, the system named is depression. The conditions noted are these: cited from earlier work; for side effects: adults; for effective in alleviating depression in adults: versus placebo.
In the next series the test system is GLUT5. The conditions noted are these: mice; duodenum and adipose tissue; cited from earlier work.
For series [1] the following is noted: rat, in vivo; cited from earlier work.
For series [2] the following is noted: carboxyl group; cited from earlier work.
The nature of series [3]: Alkaline hydrolyzation of spiked fructose-tryptophan Amadori product in stool extract. To be noted: 10 M NaOH, 100° C., 20 min. It counts as physicochemical. As to the method:
5 mg fructose-tryptophan Amadori product (MW=366.37 Da) was dissolved in 2.27 ml aqua dest. (6 mM/L). The concentration of peptide groups in this solution was determined to be 4.36 mM/L using a BCA test (Smith P K et al, Measurement of protein using bicinchoninic acid, in: Analytical Biochemistry […], 150(1):76-85, doi:10.1016/0003-2697(85)90442-7). This concentration was taken in the spiking experiments. The IDK® Amino Extract (dilution 1:50) was spiked with fructose-tryptophan Amadori product (not the raw stool) to achieve a target concentration the spiked fecal extract of 6 μM Amadori adduct/L. This corresponds to a spiking of 300 μM fructose-tryptophan Amadori product per gram stool as the stool was diluted 1:50 in the extract.
The spiking and hydrolyzation was carried out as follows: 70 μl stool extract were spiked with 10 μl 60 μM/L fructose-tryptophan Amadori product (as determined by BCA) and 10 μl 10 M NaOH. This solution was incubated at 100° C. for 20 min. to achieve hydrolyzation of all adducts and centrifuged at 550 rpm for removal of any precipitate. Finally, 10 μl 10 M HCl was added to neutralize (dilution 1:10) the solution prior measurement of tryptophan. In case of a spiking with fructose or tryptophan, the spiking solution contained 60 μM/L fructose and/or tryptophan each.

On the set-up of series [4]: key to Oxidation into 14CO2: x: Detected but not quantified; xx: Detected but not quantified. The conditions noted are these: rats, cited from earlier work.
The mark [5] stands for this setting: % of the ingested/injected material.

Read-outs that look alike come from different tables or passages of the source.

In the case of `N[C@@H](Cc1c[nH]c2ccc(O)cc12)C(=O)O` [5-HTP, 5-hydroxytryptophan], in the series on depression, the side effects entry is listed as “may have serious side effects” and the “effective in alleviating depression in adults” value was “better than placebo”.

For the compound `O=S(=O)(c1ccccc1)N(CC(F)(F)F)c1ccc(C(O)(C(F)(F)F)C(F)(F)F)cc1` [T0901317], in the series with GLUT5, the “GLUT5 mRNA” value is “increase” and the GLUT5 protein levels entry is listed as “increased”.

With `NC(CCCCNCC(=O)C(O)C(O)C(O)CO)C(=O)O` (stereo not shown) [ε-Lysine], the “absorption in the intestine” value in series [1] was “NOT absorbed in the intestine”.

As to `N[C@@H](Cc1c[nH]c2ccccc12)C(=O)O` [tryptophan], in the series on depression, the side effects result is “may have serious side effects” and the “effective in alleviating depression in adults” value is given as “better than placebo”. The pKa in series [2] is on record as 2,38.

As for “D-fructose-L-tryptophan [fructose-tryptophan Amadori product]”, in series [3], the “hydrolyzation of added adduct” value is “hydrolyzed”.

With `N[C@@H](Cc1c[nH]c2ccccc12)C(=O)O` [^14C-Tryptophan], the Retention in liver in series [4] (setting [5]) is on record as 0.7%. The urinary excretion in series [4] (setting [5]) is given as 60%; in series [4] (summary of Table 1), about 60%. For the same compound, in series [4] (detected but not quantified), the “Oxidation into 14CO2” value is on record as “xx^b”.
